Assay results reported in ChEMBL document CHEMBL4414596, “Highly Oxygenated Triterpenoids and Rare Tetraterpenoids from Abies chensiensis and Their Antibacterial Activity” (2019).
Converted amounts (≈) assume the structure as drawn. The source made the active and inactive calls. No cut-off for these calls is given here.

Assays:
[1] = tested on: Staphylococcus aureus; experiment: Antibacterial activity against Staphylococcus aureus after 24 hrs by broth microdilution method; format: functional
[2] = tested on: Bacillus subtilis; experiment: Antibacterial activity against Bacillus subtilis after 24 hrs by broth microdilution method; format: functional
[3] = tested on: Klebsiella pneumoniae; experiment: Antibacterial activity against Klebsiella pneumoniae after 24 hrs by broth microdilution method; format: functional
[4] = tested on: Escherichia coli; experiment: Antibacterial activity against Escherichia coli after 24 hrs by broth microdilution method; format: functional
[5] = tested on: Bacillus subtilis; experiment: Antibacterial activity against Bacillus subtilis assessed as growth inhibition at 5 ug/ml after 10 hrs; format: functional, organism-based
[6] = tested on: Bacillus subtilis; experiment: Antibacterial activity against Bacillus subtilis assessed as growth inhibition at 10 to 80 ug/ml measured up to 26 hrs relative to control; format: functional
[7] = tested on: Bacillus subtilis; experiment: Induction of morphological changes in Bacillus subtilis assessed as irregular size at 10 to 40 ug/ml after 24 hrs by SEM analysis; format: functional, organism-based
[8] = tested on: Bacillus subtilis; experiment: Induction of morphological changes in Bacillus subtilis assessed as slender shape at 10 to 40 ug/ml after 24 hrs by SEM analysis; format: functional, organism-based
[9] = tested on: Bacillus subtilis; experiment: Induction of morphological changes in Bacillus subtilis assessed as wrinkled surface at 10 to 40 ug/ml after 24 hrs by SEM analysis; format: functional, organism-based
[10] = tested on: Bacillus subtilis; experiment: Induction of morphological changes in Bacillus subtilis assessed as cell disruption at 10 to 40 ug/ml after 24 hrs by SEM analysis; format: functional, organism-based
[11] = tested on: Bacillus subtilis; experiment: Antibacterial activity against Bacillus subtilis assessed as growth inhibition at 5 to 80 ug/ml after 2 to 26 hrs relative to control; format: functional

CO[C@@H]1CC[C@]23C[C@]24CC[C@]2(C)[C@@H]([C@H](C)CC/C=C(\C)C(=O)O)C[C@@H](O)[C@@]2(C)[C@@H]4CC[C@H]3C1(C)C
MIC [1]: > 40 µg/mL | MIC [2]: 20 µg/mL (≈ 41.1 µM) | MIC [3]: > 40 µg/mL | MIC [4]: > 40 µg/mL

C/C(=C\CC[C@@H](C)[C@H]1C[C@@H](O)[C@@]2(C)[C@@H]3CC[C@H]4C(C)(C)[C@H](O)CC[C@@]45C[C@@]35CC[C@]12C)C(=O)O
MIC [1]: > 40 µg/mL | MIC [2]: 10 µg/mL (≈ 21.2 µM) | MIC [3]: > 40 µg/mL | MIC [4]: > 40 µg/mL

CO[C@@H]1CC[C@]23C[C@]24CC[C@]2(C)[C@@H]([C@H](C)CC/C=C(\C)C(=O)O)[C@@H](O)[C@@H](O)[C@@]2(C)[C@@H]4CC[C@H]3C1(C)C
MIC [1]: 20 µg/mL (≈ 39.8 µM) | MIC [2]: 20 µg/mL (≈ 39.8 µM) | MIC [3]: > 40 µg/mL | MIC [4]: > 40 µg/mL

O=C(N[C@H](CO)[C@H](O)c1ccc([N+](=O)[O-])cc1)C(Cl)Cl [CHLORAMPHENICOL]
MIC [1]: 20 µg/mL (≈ 61.9 µM) | MIC [2]: 5 µg/mL (≈ 15.5 µM) | MIC [3]: > 40 µg/mL | MIC [4]: > 40 µg/mL

C/C(=C\[C@@H](O)C[C@@H](C)[C@H]1CC[C@@]2(C)[C@@H]3CC[C@H]4C(C)(C)[C@@H](O)CC[C@@]45C[C@@]35CC[C@]12C)C(=O)O
MIC [1]: > 40 µg/mL | MIC [2]: 20 µg/mL (≈ 42.3 µM) | MIC [3]: > 40 µg/mL | MIC [4]: > 40 µg/mL

CC1=CC(O)(C[C@@H](C)[C@H]2CC[C@@]3(C)C4=C(CC[C@]23C)[C@@]2(C)CCC(=O)C(C)(C)[C@@H]2CC4)OC1=O (some centres not stated)
MIC [1]: > 40 µg/mL | MIC [2]: > 40 µg/mL | MIC [3]: > 40 µg/mL | MIC [4]: > 40 µg/mL

CN[C@@H]1[C@H](O[C@H]2[C@H](O[C@H]3[C@H](O)[C@@H](O)[C@H](N=C(N)N)[C@@H](O)[C@@H]3N=C(N)N)O[C@@H](C)[C@]2(O)C=O)O[C@@H](CO)[C@H](O)[C@H]1O [STREPTOMYCIN]
MIC [3]: 5 µg/mL (≈ 8.6 µM) | MIC [4]: 5 µg/mL (≈ 8.6 µM)

CO[C@@H]1CC[C@]23C[C@]24CC[C@]2(C)[C@@H]([C@H](C)C[C@H](O)/C=C(\C)C(=O)O)CC[C@@]2(C)[C@@H]4CC[C@H]3C1(C)C
MIC [1]: > 40 µg/mL | MIC [2]: > 40 µg/mL | MIC [3]: > 40 µg/mL | MIC [4]: > 40 µg/mL

CC1(C)S[C@@H]2[C@H](NC(=O)[C@H](N)c3ccccc3)C(=O)N2[C@H]1C(=O)O [AMPICILLIN]
MIC [1]: 40 µg/mL (≈ 114 µM) | MIC [2]: > 40 µg/mL | MIC [3]: > 40 µg/mL | MIC [4]: > 40 µg/mL

C[C@H](CC[C@H](O)[C@](C)(O)CO)[C@H]1CC[C@@]2(C)[C@@H]3CC[C@H]4C(C)(C)[C@@H](O)CC[C@@]45C[C@@]35CC[C@]12C (relative stereo)
MIC [1]: > 40 µg/mL | MIC [2]: > 40 µg/mL | MIC [3]: > 40 µg/mL | MIC [4]: > 40 µg/mL

C/C(=C\[C@@H](O)C[C@@H](C)[C@H]1CC[C@@]2(C)C3=C(CC[C@]12C)[C@@]1(C)CCC(=O)C(C)(C)[C@@H]1CC3)C(=O)O
MIC [1]: 40 µg/mL (≈ 85 µM) | MIC [2]: 10 µg/mL (≈ 21.2 µM) | MIC [3]: > 40 µg/mL | MIC [4]: > 40 µg/mL

C[C@H](CC[C@H](O)[C@](C)(O)CO)[C@H]1CC[C@@]2(C)[C@@H]3CC[C@H]4C(C)(C)C(=O)CC[C@@]45C[C@@]35CC[C@]12C (relative stereo)
MIC [1]: > 40 µg/mL | MIC [2]: > 40 µg/mL | MIC [3]: > 40 µg/mL | MIC [4]: > 40 µg/mL

C/C(=C\CC[C@@H](C)[C@H]1C[C@@H](O)[C@@]2(C)[C@@H]3CC[C@H]4C(C)(C)[C@@H](O)CC[C@@]45C[C@@]35CC[C@]12C)C(=O)O
MIC [1]: 20 µg/mL (≈ 42.3 µM) | MIC [2]: 10 µg/mL (≈ 21.2 µM) | growth inhibition (GI) [5]: Active | growth inhibition (GI) [6]: 100% | MIC [3]: > 40 µg/mL | MIC [4]: > 40 µg/mL

C/C(=C\CC[C@@H](C)[C@H]1C[C@@H](O)[C@@]2(C)[C@@H]3CC[C@H]4C(C)(C)C(=O)CC[C@@]45C[C@@]35CC[C@]12C)C(=O)O
MIC [1]: 40 µg/mL (≈ 85 µM) | MIC [2]: 5 µg/mL (≈ 10.6 µM) | Activity [7]: Active | Activity [8]: Active | Activity [9]: Active | Activity [10]: Active | MIC [3]: > 40 µg/mL | growth inhibition (GI) [11]: 100% | MIC [4]: > 40 µg/mL

C/C(=C\CC[C@@H](C)[C@H]1[C@@H](O)[C@@H](O)[C@@]2(C)[C@@H]3CC[C@H]4C(C)(C)C(=O)CC[C@@]45C[C@@]35CC[C@]12C)C(=O)O
MIC [1]: > 40 µg/mL | MIC [2]: > 40 µg/mL | MIC [3]: > 40 µg/mL | MIC [4]: > 40 µg/mL

C/C(=C\CC[C@@H](C)[C@H]1CC[C@@]2(C)[C@@H]3CC[C@H]4C(C)(C)[C@H](O)CC[C@@]45C[C@@]35CC[C@]12C)C(=O)O [ISOMANGIFEROLIC ACID]
MIC [1]: > 40 µg/mL | MIC [2]: > 40 µg/mL | MIC [3]: > 40 µg/mL | MIC [4]: > 40 µg/mL

CC1=C[C@@H](C[C@@H](C)[C@H]2C[C@@H](O)[C@@]3(C)[C@@H]4CC[C@H]5C(C)(C)[C@H](O)CC[C@@]56C[C@@]46CC[C@]23C)OC1=O
MIC [1]: > 40 µg/mL | MIC [2]: > 40 µg/mL | MIC [3]: > 40 µg/mL | MIC [4]: > 40 µg/mL

C=C1CC[C@@](C)([C@H](C)CC(=O)[C@H]2CC(CCC=C(C)C)=CC[C@]2(C)C(=O)O)[C@@]12CCC1=C2CC[C@H]2C(C)(C)[C@@H](O)CC[C@]12C
MIC [1]: > 40 µg/mL | MIC [2]: > 40 µg/mL | MIC [3]: > 40 µg/mL | MIC [4]: > 40 µg/mL

C[C@H](CC[C@@H](O)C(C)(C)O)[C@H]1CC[C@@]2(C)[C@@H]3CC[C@H]4C(C)(C)C(=O)CC[C@@]45C[C@@]35CC[C@]12C
MIC [1]: > 40 µg/mL | MIC [2]: > 40 µg/mL | MIC [3]: > 40 µg/mL | MIC [4]: > 40 µg/mL

C=C1CC[C@@](C)([C@H](C)CC(=O)C[C@@H](C)C(=O)O)[C@@]12CCC1=C2CC[C@H]2C(C)(C)C(=O)CC[C@]12C
MIC [1]: 40 µg/mL (≈ 85.3 µM) | MIC [2]: 10 µg/mL (≈ 21.3 µM) | MIC [3]: > 40 µg/mL | MIC [4]: > 40 µg/mL

C/C(=C\CC[C@@H](C)[C@H]1CC[C@@]2(C)[C@@H]3CC[C@H]4C(C)(C)[C@@H](O)CC[C@@]45C[C@@]35CC[C@]12C)C(=O)O [MANGIFEROLIC ACID]
MIC [1]: > 40 µg/mL | MIC [2]: > 40 µg/mL | MIC [3]: > 40 µg/mL | MIC [4]: > 40 µg/mL

C/C(=C\CC[C@@H](C)[C@H]1CC[C@@]2(C)[C@@H]3CC[C@H]4C(C)(C)C(=O)CC[C@@]45C[C@@]35CC[C@]12C)C(=O)O [MANGIFERONIC ACID]
MIC [1]: > 40 µg/mL | MIC [2]: > 40 µg/mL | MIC [3]: > 40 µg/mL | MIC [4]: > 40 µg/mL

CC1=C[C@@H](C[C@@H](C)[C@H]2CC[C@@]3(C)[C@@H]4CC[C@H]5C(C)(C)[C@@H](O)CC[C@@]56C[C@@]46CC[C@]23C)OC1=O
MIC [1]: > 40 µg/mL | MIC [2]: > 40 µg/mL | MIC [3]: > 40 µg/mL | MIC [4]: > 40 µg/mL
